Measured values from ChEMBL document CHEMBL1126058, “Development of potent and selective CCK-A receptor agonists from Boc-CCK-4: tetrapeptides containing Lys(N epsilon)-amide residues” (J Med Chem, 1992).
pEC50, pIC50: −log10 of the molar value. Where a SMILES comes first, the peptide text is derived from it. [ ]: non-standard residue; d: D form. The star is where a group is joined. X23 = O=C(/C=C/c1ccc(OS(=O)(=O)O)cc1)*; X28 = O=C(/C=C\c1cccc(OS(=O)(=O)O)c1)*; X22 = O=C(CCc1cccc(OS(=O)(=O)O)c1)*; X24 = O=C(/C=C/c1c[nH]c2ccccc12)*; X26 = O=C(/C=C\c1ccc(Cl)c(Cl)c1)*; NMeF = CN[C@@H](Cc1ccccc1)C(=O)O; X30 = O=C(CCc1ccc(C(F)(F)F)cc1)*; X31 = COc1ccc(/C=C\C(=O)*)cc1OC; X25 = COc1ccc(/C=C\C(=O)*)cc1; X33 = O=C(/C=C/c1ccc(Cl)cc1)*; X29 = O=C(/C=C\c1cccc(O)c1)*; X32 = Cc1ccc(/C=C\C(=O)*)cc1; X27 = O=C(Cc1ccc(O)cc1)*; Boc = CC(C)(C)OC(=O)*

Columns and labels:
[1] = target: T1, Cholecystokinin receptor type A (Cavia porcellus, UniProt Q63931); test: Inhibition of specific binding of [125I]BH-CCK-8 in guinea pig pancreas.
T1 sequence (Q63931 whole entry): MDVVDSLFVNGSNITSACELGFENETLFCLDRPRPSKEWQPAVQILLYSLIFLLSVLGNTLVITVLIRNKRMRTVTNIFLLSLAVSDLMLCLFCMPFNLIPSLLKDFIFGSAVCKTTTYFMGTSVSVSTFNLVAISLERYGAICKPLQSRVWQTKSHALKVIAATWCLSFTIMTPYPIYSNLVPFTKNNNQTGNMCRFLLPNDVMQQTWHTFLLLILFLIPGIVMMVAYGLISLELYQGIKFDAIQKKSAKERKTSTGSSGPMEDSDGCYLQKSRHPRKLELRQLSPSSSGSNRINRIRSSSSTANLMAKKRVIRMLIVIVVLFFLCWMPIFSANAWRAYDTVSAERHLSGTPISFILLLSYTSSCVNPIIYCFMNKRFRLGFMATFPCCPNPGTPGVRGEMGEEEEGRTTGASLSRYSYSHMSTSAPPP

Cavia porcellus [2] = species: Cavia porcellus; test: Stimulation of amylase release in guinea pig pancreas; assay type: functional
Cavia porcellus [3] = species: Cavia porcellus; test: Hydrolysis of phosphoinositide (PI) relative to maximal response elicited by CCK-8 in guinea pig pancreas.; assay type: functional

pIC50 [1]	pEC50 (Cavia porcellus [2])	Structure (SMILES)	Max (Cavia porcellus [3]) [%]
7.72	7.52	CC(C)(C)OC(=O)N[C@@H](Cc1c[nH]c2ccccc12)C(=O)N[C@@H](CCCCNC(=O)/C=C/c1c[nH]c2ccccc12)C(=O)N[C@@H](CC(=O)O)C(=O)N[C@@H](Cc1ccccc1)C(N)=O (Boc-WK(X24)DF-NH2)	55
7.52	7.70	COc1ccc(/C=C\C(=O)NCCCC[C@H](NC(=O)[C@H](Cc2c[nH]c3ccccc23)NC(=O)OC(C)(C)C)C(=O)N[C@@H](CC(=O)O)C(=O)N[C@@H](Cc2ccccc2)C(N)=O)cc1 (Boc-WK(X25)DF-NH2)	72
7.31	7.34	CC(C)(C)OC(=O)N[C@@H](Cc1c[nH]c2ccccc12)C(=O)N[C@@H](CCCCNC(=O)/C=C\c1ccc(Cl)c(Cl)c1)C(=O)N[C@@H](CC(=O)O)C(=O)N[C@@H](Cc1ccccc1)C(N)=O (Boc-WK(X26)DF-NH2)	62
5.96	4.52	CC(C)(C)OC(=O)N[C@@H](Cc1c[nH]c2ccccc12)C(=O)N[C@@H](CCCCNC(=O)Cc1ccc(O)cc1)C(=O)N[C@@H](CC(=O)O)C(=O)N[C@@H](Cc1ccccc1)C(N)=O (Boc-WK(X27)DF-NH2)	88
7.66	7.23	CC(C)(C)OC(=O)N[C@@H](Cc1c[nH]c2ccccc12)C(=O)N[C@@H](CCCCNC(=O)/C=C\c1cccc(O)c1)C(=O)N[C@@H](CC(=O)O)C(=O)N[C@@H](Cc1ccccc1)C(N)=O (Boc-WK(X29)DF-NH2)	54
7.40	7.77	COc1ccc(/C=C\C(=O)NCCCC[C@H](NC(=O)[C@H](Cc2c[nH]c3ccccc23)NC(=O)OC(C)(C)C)C(=O)N[C@@H](CC(=O)O)C(=O)N[C@@H](Cc2ccccc2)C(N)=O)cc1OC (Boc-WK(X31)DF-NH2)	61
7.82	8.07	CN(C(=O)[C@H](CC(=O)O)NC(=O)[C@H](CCCCNC(=O)/C=C/c1ccc(Cl)cc1)NC(=O)[C@H](Cc1c[nH]c2ccccc12)NC(=O)OC(C)(C)C)[C@@H](Cc1ccccc1)C(N)=O (Boc-WK(X33)D[NMeF]-NH2)	68

Second part, the molecule before the results:

Structure (SMILES)	pIC50 [1]	pEC50 (Cavia porcellus [2])	Max (Cavia porcellus [3]) [%]
CC(C)(C)OC(=O)N[C@@H](Cc1c[nH]c2ccccc12)C(=O)N[C@@H](CCCCNC(=O)CCc1cccc(OS(=O)(=O)O)c1)C(=O)N[C@@H](CC(=O)O)C(=O)N[C@@H](Cc1ccccc1)C(N)=O (Boc-WK(X22)DF-NH2)	6.74	7.16	50
CN(C(=O)[C@H](CC(=O)O)NC(=O)[C@H](CCCCNC(=O)/C=C/c1ccc(OS(=O)(=O)O)cc1)NC(=O)[C@H](Cc1c[nH]c2ccccc12)NC(=O)OC(C)(C)C)[C@@H](Cc1ccccc1)C(N)=O (Boc-WK(X23)D[NMeF]-NH2)	7.66	8.54	74
CC(C)(C)OC(=O)N[C@@H](Cc1c[nH]c2ccccc12)C(=O)N[C@@H](CCCCNC(=O)/C=C\c1cccc(OS(=O)(=O)O)c1)C(=O)N[C@@H](CC(=O)O)C(=O)N[C@@H](Cc1ccccc1)C(N)=O (Boc-WK(X28)DF-NH2)	7.41	7.60	70
CC(C)(C)OC(=O)N[C@@H](Cc1c[nH]c2ccccc12)C(=O)N[C@@H](CCCCNC(=O)CCc1ccc(C(F)(F)F)cc1)C(=O)N[C@@H](CC(=O)O)C(=O)N[C@@H](Cc1ccccc1)C(N)=O (Boc-WK(X30)DF-NH2)	6.41	4.52	77
Cc1ccc(/C=C\C(=O)NCCCC[C@H](NC(=O)[C@H](Cc2c[nH]c3ccccc23)NC(=O)OC(C)(C)C)C(=O)N[C@@H](CC(=O)O)C(=O)N[C@@H](Cc2ccccc2)C(N)=O)cc1 (Boc-WK(X32)DF-NH2)	7.15	7.28	71
